Values of other authors in patent publication US20140234406A1, “NOVEL NANOPARTICULATE SUSPENSION FOR INCORPORATING FAT-SOLUBLE VITAMINS IN THE TREATMENT OF HAIR THINNING and HAIR LOSS” (HairRx, priority 2013, published 2014).

Conditions: biological half-life; reported by Yap et al. 2001 and Schwedhelm et al. 2003

- half-life: 73 to 81 h
SMILES: Cc1c(C)c2c(c(C)c1O)CC[C@@](C)(CCC[C@H](C)CCC[C@H](C)CCCC(C)C)O2 [alpha-tocopherol]
